Bridge positions count the residues as written; N and C are the ends. Square brackets hold non-standard residues; d marks the D form. Ends that are not written are not given here. Peptide text beside a SMILES is read from it. dDip = N[C@@H](C(=O)O)C(c1ccccc1)c1ccccc1; Phe(4-Cl) = N[C@@H](Cc1ccc(Cl)cc1)C(=O)O; Phe(4-F) = N[C@@H](Cc1ccc(F)cc1)C(=O)O; 2Nal = N[C@@H](Cc1ccc2ccccc2c1)C(=O)O; 3Pal = N[C@@H](Cc1cccnc1)C(=O)O; Tle = CC(C)(C)[C@H](N)C(=O)O; Nal = naphthylalanine
T1: U-II receptors (rat thoracic aorta tissue) (rat, UniProt P49684 1-386)
T1 sequence (looked up): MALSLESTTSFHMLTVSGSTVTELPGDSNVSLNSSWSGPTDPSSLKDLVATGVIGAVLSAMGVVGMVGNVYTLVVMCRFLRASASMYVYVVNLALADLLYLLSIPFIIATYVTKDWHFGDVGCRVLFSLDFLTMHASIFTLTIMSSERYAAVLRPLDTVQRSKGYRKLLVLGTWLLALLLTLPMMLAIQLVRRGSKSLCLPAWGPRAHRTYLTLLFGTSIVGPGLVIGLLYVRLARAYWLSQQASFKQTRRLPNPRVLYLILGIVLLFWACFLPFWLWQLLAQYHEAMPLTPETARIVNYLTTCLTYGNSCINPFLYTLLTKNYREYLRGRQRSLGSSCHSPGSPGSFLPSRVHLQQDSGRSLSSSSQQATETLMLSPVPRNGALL

T2: U-II receptors (Rattus norvegicus, UniProt P49684)
T2 construct: from tissue; host or cells: rat thoracic aorta (circular strips / rings)
T2 sequence (P49684 1-386): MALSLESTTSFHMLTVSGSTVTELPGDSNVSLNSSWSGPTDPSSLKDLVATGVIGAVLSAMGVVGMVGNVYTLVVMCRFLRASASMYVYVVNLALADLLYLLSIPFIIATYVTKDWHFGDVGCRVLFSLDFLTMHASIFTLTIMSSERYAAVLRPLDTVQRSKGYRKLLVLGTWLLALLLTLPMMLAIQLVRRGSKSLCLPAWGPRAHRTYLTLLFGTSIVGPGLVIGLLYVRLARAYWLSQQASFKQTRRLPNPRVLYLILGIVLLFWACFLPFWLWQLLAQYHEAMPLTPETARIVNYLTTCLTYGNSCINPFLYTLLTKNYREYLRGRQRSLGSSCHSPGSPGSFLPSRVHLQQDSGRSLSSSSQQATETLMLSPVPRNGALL


Each molecule was assayed on U-II Stimulation of Rat Aorta Phasic Contractions (assay: not given). Details: not given.
Method: Example 2: Use of Rat Aorta Circular Strip for Assay U-II Antagonists
Male Sprague-Dawley rats (250-350 g), which had been quarantined for 5-7 days prior to the experiments, were sacrificed by decapitation (experiments were approved by the Advisory Committee For Animal Resources, Tulane University School of Medicine). The thoracic aorta was dissected, freed from connective tissue, and cut into rings of about 1.5 mm in width. The rings were suspended in a 15 ml organ bath containing high potassium Kreb's solution (9.15 g/L potassium chloride, 2.1 g/L sodium bicarbonate, 1.0 g/L glucose, 0.16 g/L potassium phosphate monobasic. 0.14 g/L magnesium sulfate (anhydr.), and 0.22 g/L calcium chloride (dihydr.))
Optimal tension was applied (0.2 g) to the tissues and the bath medium was maintained at 37°C and bubbled with a mixture of 95% O2/5% CO2. Prior to mounting in the organ bath, selected preparations were rubbed with a moistened cotton wool swab, in order to remove the endothelial cell layer, and the effect of this procedure was tested using an acetylcholine-relaxation test. (Gibson, A., Br. J. Pharmacol. 91:205 (1987)). The aorta rings were allowed to equilibrate for 90 min. at the optimal tensions. During the equilibration period, the bath solution was replaced every 15 min. Contractile responses of aortae rings to various concentrations of peptides were expressed in volts. Changes in arterial smooth muscle tension were recorded isometrically using a force-displacement transducer (Radnoti), and a AcqKnowledge ACK100 Version 3.2 (BIOPAC Systems, Inc., Santa Barbara, CA.)
In siliconized glass tubes, peptides were dissolved in dionized water at a concentration of 1 µg/1µL (stock solution) and then diluted 1:10 with sterile BSA-saline solution (0.1% BSA, fraction V, Sigma, St. Louis in 0.9% NaCl). All peptide solutions were prepared fresh directly before the experiments. Peptides in the concentration ranges of 10^-6 to 10^-12 M/L in a final volume of 16-80 µL were direcly introduced into the tested organ bath containing Krebs buffer continuously gassed with 95% O, and 5% CO2, and the aorta rings at an optimal resting tension (1 - 0.2g). Peptide-induced changes in tension of the aorta rings were recorded by force-displacement transducers and processed by the computer system BIOPAC Inc., as described above. Each ring was exposed to one peptide concentration only.
Various somatostatin (SRIF) antagonists were discovered to have the ability to block UII-induced phase contractions in the circular rat thoracic aorta strips. […] The polypeptide Cpa-c[D-Cys-Phe-Trp-Lys-Thr-Cys]-ValNH2 was also a strong U-II antagonist with an IC50 of 2nM. Table 1. SRIF Antagonist IC50s (nM) against U-II Stimulation of Rat Aorta Phasic Contractions

Molecule	IC50 [nM]
CC(C)[C@@H]1NC(=O)[C@H](CCCCN)NC(=O)[C@@H](Cc2c[nH]c3ccccc23)NC(=O)[C@H](Cc2cccnc2)NC(=O)[C@H](NC(=O)[C@@H](N)Cc2ccc(F)cc2)CSSC[C@@H](C(=O)N[C@@H](Cc2ccc3ccccc3c2)C(N)=O)NC1=O [4Fpa-D-Cys-Pal-D-Trp-Lys-Val-Cys-Nal-NH2] (H-[Phe(4-F)][dC][3Pal][dW]KVC[2Nal]-NH2; disulfide 2-7; N-terminus assumed)	1090
CC(C)(C)[C@@H]1NC(=O)[C@H](CCCCN)NC(=O)[C@@H](Cc2c[nH]c3ccccc23)NC(=O)[C@H](Cc2cccnc2)NC(=O)[C@H](NC(=O)[C@@H](N)Cc2ccc(F)cc2)CSSC[C@@H](C(=O)N[C@@H](Cc2ccc3ccccc3c2)C(N)=O)NC1=O [4Fpa-D-Cys-Pal-D-Trp-Lys-Tle-Cys-Nal-NH2] (H-[Phe(4-F)][dC][3Pal][dW]K[Tle]C[2Nal]-NH2; disulfide 2-7; N-terminus assumed)	100
CC(C)(C)[C@@H]1NC(=O)[C@H](CCCCN)NC(=O)[C@@H](Cc2c[nH]c3ccccc23)NC(=O)[C@H](Cc2cccnc2)NC(=O)[C@H](NC(=O)[C@@H](N)Cc2ccc(Cl)cc2)CSSC[C@@H](C(=O)N[C@@H](Cc2ccc3ccccc3c2)C(N)=O)NC1=O [Cpa-D-Cys-Pal-D-Trp-Lys-Tie-Cys-Nal-NH2] (H-[Phe(4-Cl)][dC][3Pal][dW]K[Tle]C[2Nal]-NH2; disulfide 2-7; N-terminus assumed)	10

Further lines, results first:

IC50 [nM]	Molecule
12	C[C@@H](O)[C@@H]1NC(=O)[C@H](CCCCN)NC(=O)[C@@H](Cc2c[nH]c3ccccc23)NC(=O)[C@H](Cc2ccc(O)cc2)NC(=O)[C@H](NC(=O)[C@@H](N)Cc2ccc(Cl)cc2)CSSC[C@@H](C(=O)N[C@@H](Cc2ccc3ccccc3c2)C(N)=O)NC1=O [Cpa-D-Cys-Tyr-D-Trp-Lys-Thr-Cys-Nal-NH2] (H-[Phe(4-Cl)][dC]Y[dW]KTC[2Nal]-NH2; disulfide 2-7; N-terminus assumed)
2	C[C@@H](O)[C@@H]1NC(=O)[C@H](CCCCN)NC(=O)[C@H](Cc2c[nH]c3ccccc23)NC(=O)[C@H](Cc2cccnc2)NC(=O)[C@H](NC(=O)[C@@H](N)Cc2ccc(Cl)cc2)CSSC[C@@H](C(=O)N[C@@H](Cc2ccc(Cl)cc2)C(N)=O)NC1=O [Cpa-D-Cys-Pal-Trp-Lys-Thr-Cys-Cpa-NH2]
1800	CC(C)[C@@H]1NC(=O)[C@H](CCCCN)NC(=O)[C@@H](Cc2c[nH]c3ccccc23)NC(=O)[C@H](Cc2c[nH]cn2)NC(=O)[C@H](NC(=O)[C@@H](N)Cc2ccc3ccccc3c2)CSSC[C@@H](C(=O)N[C@@H](C(N)=O)C(c2ccccc2)c2ccccc2)NC1=O [Nal-D-Cys-His-D-Trp-Lys-Val-Cys-D-Dip-NH2] (H-[2Nal][dC]H[dW]KVC[dDip]-NH2; disulfide 2-7; N-terminus assumed)
~100	CC(C)[C@@H]1NC(=O)[C@H](CCCCN)NC(=O)[C@@H](Cc2c[nH]c3ccccc23)NC(=O)[C@H](Cc2cccnc2)NC(=O)[C@H](NC(=O)[C@@H](N)Cc2ccc(Cl)cc2)CSSC[C@@H](C(=O)N[C@@H](Cc2ccc(Cl)cc2)C(N)=O)NC1=O [Cpa-c[D-Cys-Pal-D-Trp-Lys-Val-Cys]-Cpa-amide] (H-[Phe(4-Cl)][dC][3Pal][dW]KVC[Phe(4-Cl)]-NH2; disulfide 2-7)

These molecules were tested against T1, U-II receptors (rat thoracic aorta …) (assay: cell-based or functional assay). Details: not given.

IC50 against U-II-induced phasic contractions of circular rat thoracic aorta strips [nM]	Molecule
2	[Phe(4-Cl)][dC]FWKTCV-NH2 (disulfide 2-7 (inferred)) [Cpa-c[D-Cys-Phe-Trp-Lys-Thr-Cys]-Val-NH2 (SEQ ID NO: 5)]

Biological target: T1, U-II receptors (rat thoracic aorta …)
Assay: cell-based or functional assay
Details: not given
Remark: another data set of the same source

Molecule	IC50 (nM) against U-II Stimulation of Rat Aorta Phasic Contractions [nM]
[Phe(4-Cl)][dC][3Pal][dW]K[Tle]C[Nal]-NH2 (disulfide 2-7 (inferred)) [Cpa-D-Cys-Pal-D-Trp-Lys-Tie-Cys-Nal-NH2 (SEQ ID NO: 10)]	10
[Phe(4-F)][dC][3Pal][dW]KVC[Nal]-NH2 (disulfide 2-7 (inferred)) [4Fpa-D-Cys-Pal-D-Trp-Lys-Val-Cys-Nal-NH2 (SEQ ID NO: 7)]	1090
[Phe(4-F)][dC][3Pal][dW]K[Tle]C[Nal]-NH2 (disulfide 2-7 (inferred)) [4Fpa-D-Cys-Pal-D-Trp-Lys-Tle-Cys-Nal-NH2 (SEQ ID NO: 8)]	100

The next lines start with the values.

IC50 (nM) against U-II Stimulation of Rat Aorta Phasic Contractions [nM]	Molecule
1800	[Nal][dC]H[dW]KVC[dDip]-NH2 (disulfide 2-7 (inferred)) [Nal-D-Cys-His-D-Trp-Lys-Val-Cys-D-Dip-NH2 (SEQ ID NO: 6)]
2	[Phe(4-Cl)][dC][3Pal]WKTC[Phe(4-Cl)]-NH2 (disulfide 2-7 (inferred)) [Cpa-D-Cys-Pal-Trp-Lys-Thr-Cys-Cpa-NH2 (SEQ ID NO: 11)]
12	XXYXKTCX (Cpa (p-chlorophenylalanine) at 1; D-Cys at 2; D-Trp at 4; Nal (naphthylalanine) at 8; C-terminal amide) [Cpa-D-Cys-Tyr-D-Trp-Lys-Thr-Cys-Nal-NH2 (SEQ ID NO: 9)]

What follows are molecules tested against U-II receptors (rat thoracic aorta tissue) (rat) (UniProt P49684) (assay: cell-based or functional assay). Details: not given.

IC50 against U-II-induced phasic contractions of circular rat thoracic aorta strips [nM]	Molecule
100	Cpa-c[D-Cys-Pal-D-Trp-Lys-Val-Cys]-Cpa-amide (SEQ ID NO: 4) (peptide)

These molecules were tested against T2, U-II receptors (assay: Binding to U-II receptors (rat aorta tissue)). Details: unit inferred.

Kd [nM]	Molecule
240	CC(C)[C@@H]1NC(=O)[C@H](CCCCN)NC(=O)[C@@H](Cc2c[nH]c3ccccc23)NC(=O)[C@H](Cc2cccnc2)NC(=O)[C@H](NC(=O)[C@@H](N)Cc2ccc(Cl)cc2)CSSC[C@@H](C(=O)N[C@@H](Cc2ccc(Cl)cc2)C(N)=O)NC1=O [Cpa-c[D-Cys-Pal-D-Trp-Lys-Val-Cys]-Cpa-amide] (H-[Phe(4-Cl)][dC][3Pal][dW]KVC[Phe(4-Cl)]-NH2; disulfide 2-7)

Source: patent publication EP1878743A2, “Urotensin-II agonists and antagonists” (The Administrators of The Tulane Educational Fund, priority 2000, dated 2002)
